Experimental data from patent US20030190642A1, “Thymus expressed human cytochrome p450(p450tec)” (priority 2003, published 2003).

Molecular target: T1, P450TEC (Homo sapiens, UniProt Q7Z449)
T1 construct: One of 5 clones contained a putative full length cytochrome, which we have named P450TEC; made in house; host or cells: Sf9 insect cells, recombinant baculovirus (pVL1392 transfer vector); microsomal fraction
T1 sequence (Q7Z449 1-544): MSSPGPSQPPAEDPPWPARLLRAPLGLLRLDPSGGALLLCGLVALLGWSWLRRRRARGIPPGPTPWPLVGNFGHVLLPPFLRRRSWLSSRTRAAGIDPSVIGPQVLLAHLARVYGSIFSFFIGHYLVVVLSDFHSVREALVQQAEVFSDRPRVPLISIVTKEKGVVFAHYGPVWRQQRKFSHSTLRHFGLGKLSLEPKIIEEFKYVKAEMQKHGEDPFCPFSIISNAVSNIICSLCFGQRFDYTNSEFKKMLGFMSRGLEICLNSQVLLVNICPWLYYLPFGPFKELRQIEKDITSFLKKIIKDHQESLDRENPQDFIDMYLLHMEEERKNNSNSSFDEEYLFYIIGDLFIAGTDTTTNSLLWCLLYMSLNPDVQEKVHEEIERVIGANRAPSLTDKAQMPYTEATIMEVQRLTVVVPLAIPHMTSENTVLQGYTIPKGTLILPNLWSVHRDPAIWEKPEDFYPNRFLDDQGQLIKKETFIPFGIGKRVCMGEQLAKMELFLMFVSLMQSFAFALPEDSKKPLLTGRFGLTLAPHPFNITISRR
Assay: Arachidonic acid metabolism by baculovirus-Sf9-expressed P450TEC microsomes (HPLC, LC-MS)
Type: biochemical
Procedure: Cultured Sf9 insect cells expressing recombinant P450TEC were harvested 3 days after infection, washed twice with phosphate buffered saline (PBS) and resuspended in lysis buffer (100 mM Tris-HCl, pH 7.4, 1 mM EDTA, 0.5 M sucrose) containing protease inhibitor cocktail (Roche Diagnostics GmbH, Mannheim, Germany, 1 tablet per 10 ml lyses buffer). Cells were disrupted by brief sonication (5-8 bursts of 5 seconds duration) on ice using 550 Sonic Dismembrator (Fisher Scientific, Canada). The resulting cell lysates were successively centrifuged, at 800g, and 10,000g for 10 min each time at 4° C. Microsomal fractions from the 10,000g supernatants were pelleted by centrifugation at ˜1 00,000g for 60 min at 4° C. The pellet was then resuspended in microsomes storage buffer (10 mM Tris-HCl, pH 7.4, 5 mM MgCl2, 1mM EDTA, 150 mM KCI and 10% glycerol) and stored at −70° C. […]
For MS and MS/MS analyses of arachidonic acid metabolites, 5 μM of unlabeled arachidonic acid was incubated for 60 min. […] Similarly, ethyl acetate extracts from microsomal incubations without arachidonic acid was also processed and analyzed by LC-MS. […]

metabolite formed from arachidonic acid by P450TEC (P450TEC microsomes, NADPH, 1 or 20 μM [1-14C] arachidonic acid, 60 min, 37° C.): monohydroxylated arachidonic acid
Compound: CCCCCC=CCC=CCC=CCC=CCCCC(=O)O [arachidonic acid, 5,8, 11, 14-eicosatetraenoic acid]
linearity of arachidonic acid metabolite formation with time (5 μM [1-14C] arachidonic acid, NADPH-CYP oxidoreductase+b5 and NADPH, 15, 30 and 60 min): directly porportional to time of incubation
